Experimental data: ChEMBL document CHEMBL1201862, “PubChem BioAssay data set” (2004)
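How tested: cells in 96-well plates exposed to compound for 48 hours at five concentrations. GI50 = concentration required for 50% inhibition of growth.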 Calls of active or inactive are those of the source. Rule as the data show it: active = GI50 up to about 1.1 µM and inactive = higher.

Legend:
Experiment in all cases: NCI tumour cell line growth inhibition, 48 h
786-0 = system: 786-0
A498 = system: A498
A549 = system: A549
CCRF-CEM = system: CCRF-CEM
COLO 205 = system: COLO 205
HCC 2998 = system: HCC 2998
HOP-92 = system: HOP-92
K562 = system: K562
LOX IMVI = system: LOX IMVI
NCI-H23 = system: NCI-H23
OVCAR-3 = system: OVCAR-3
OVCAR-5 = system: OVCAR-5
SF-295 = system: SF-295
SK-OV-3 = system: SK-OV-3
SN12C = system: SN12C
SR = system: SR
TK-10 = system: TK-10
UO-31 = system: UO-31
RPMI-8226 = system: RPMI-8226
MDA-MB-435 = system: MDA-MB-435

Measured: GI50

CCOC(=N)CC(=O)c1ccccc1
inactive: 786-0 > 100 µM | A498 > 100 µM | A549 > 100 µM | CCRF-CEM > 100 µM | COLO 205 > 100 µM | HCC 2998 > 100 µM | HOP-92 > 100 µM | K562 > 100 µM | LOX IMVI > 100 µM | NCI-H23 > 100 µM | OVCAR-3 > 100 µM | OVCAR-5 > 100 µM | SF-295 > 100 µM | SK-OV-3 > 100 µM | SN12C > 100 µM | SR > 100 µM | TK-10 > 100 µM | UO-31 > 100 µM

COC(=O)C(=O)OC1(C(C)=O)CC2(c3ccccc3)OC1(c1ccccc1)c1ccccc12 (stereo not given)
inactive: 786-0 13.5 µM | A498 18.6 µM | A549 14.8 µM | CCRF-CEM 33.6 µM | COLO 205 15.8 µM | HCC 2998 16.7 µM | HOP-92 14 µM | K562 27.7 µM | LOX IMVI 15.7 µM | NCI-H23 17.2 µM | OVCAR-3 13.9 µM | OVCAR-5 26.1 µM | RPMI-8226 20.8 µM | SF-295 14.5 µM | SK-OV-3 29.9 µM | SN12C 15 µM | SR 28.1 µM | TK-10 29.4 µM | UO-31 14.2 µM

COc1ccc(/N=N/c2c(-c3ccccc3)nn(C(=O)CC(=O)Nc3ccccc3Cl)c2-c2ccccc2)cc1
inactive: 786-0 > 100 µM | A498 > 100 µM | A549 > 100 µM | CCRF-CEM 30.8 µM | COLO 205 > 100 µM | HCC 2998 > 100 µM | HOP-92 20.6 µM | K562 30.7 µM | LOX IMVI > 100 µM | NCI-H23 > 100 µM | OVCAR-3 36.9 µM | OVCAR-5 97.5 µM | SF-295 > 100 µM | SN12C > 100 µM | SR 2.82 µM | TK-10 77.6 µM | UO-31 42.9 µM

COc1ccc(NC(=O)c2cc(OC)cc(OC)c2)cc1
inactive: 786-0 > 85.7 µM | A498 35.4 µM | A549 12.1 µM | CCRF-CEM 27.9 µM | COLO 205 7.1 µM | HCC 2998 23 µM | HOP-92 > 100 µM | K562 4.74 µM | LOX IMVI 17.6 µM | NCI-H23 41.1 µM | OVCAR-3 12.1 µM | OVCAR-5 > 59.8 µM | RPMI-8226 18 µM | SF-295 17.8 µM | SK-OV-3 31.4 µM | SN12C 67 µM | SR 11.6 µM | TK-10 43.7 µM | UO-31 44 µM

COc1ccc2nc(NC(=O)C(=O)CC(=O)c3ccc(Cl)cc3)sc2c1
inactive: 786-0 > 100 µM | A498 > 100 µM | A549 67.1 µM | CCRF-CEM > 100 µM | COLO 205 > 100 µM | HCC 2998 56.9 µM | HOP-92 30.5 µM | NCI-H23 > 100 µM | OVCAR-3 > 100 µM | SF-295 56.9 µM | SK-OV-3 34.7 µM | SN12C > 100 µM | SR > 100 µM | TK-10 > 100 µM | UO-31 69 µM

CC(=O)C1=C(C)N2C(=NC3=C(CCc4ccccc43)C2c2cccc(Br)c2)S1 (stereo not given)
inactive: 786-0 > 100 µM | A498 > 100 µM | A549 > 100 µM | CCRF-CEM 69.7 µM | COLO 205 88.1 µM | HCC 2998 72.9 µM | HOP-92 > 100 µM | LOX IMVI 76.4 µM | MDA-MB-435 > 100 µM | NCI-H23 99.1 µM | OVCAR-3 93.1 µM | OVCAR-5 > 100 µM | RPMI-8226 16.8 µM | SF-295 > 100 µM | SK-OV-3 > 100 µM | SN12C > 100 µM | UO-31 > 100 µM

N#CC12COC3(CCCCC3C1(C#N)C#N)OC2=N (stereo not given)
inactive: 786-0 19.2 µM | A498 18.2 µM | A549 24.7 µM | CCRF-CEM 3.53 µM | COLO 205 6.4 µM | HOP-92 5.06 µM | K562 10.6 µM | LOX IMVI 12.9 µM | MDA-MB-435 18.9 µM | NCI-H23 16.7 µM | OVCAR-3 11.1 µM | OVCAR-5 16.6 µM | SF-295 19.5 µM | SK-OV-3 45.7 µM | SN12C 12.3 µM | TK-10 16.2 µM | UO-31 15.2 µM

N=C(N)c1ccc2oc3ccc(C(=N)N)cc3c(=O)c2c1
inactive: 786-0 > 100 µM | A498 > 100 µM | A549 > 100 µM | CCRF-CEM > 100 µM | COLO 205 > 100 µM | HCC 2998 > 100 µM | HOP-92 > 100 µM | K562 > 100 µM | MDA-MB-435 > 100 µM | NCI-H23 > 100 µM | OVCAR-3 > 100 µM | OVCAR-5 > 100 µM | RPMI-8226 > 100 µM | SF-295 > 100 µM | SN12C > 100 µM | TK-10 > 100 µM | UO-31 > 100 µM

CCN(CC)CCCNc1nc(=O)[nH]c(C)c1C(=O)Nc1ccc2c(c1)c1ccccc1n2CC
inactive: 786-0 > 100 µM | A549 > 100 µM | CCRF-CEM > 100 µM | COLO 205 > 100 µM | HCC 2998 > 100 µM | HOP-92 > 100 µM | K562 > 100 µM | LOX IMVI > 100 µM | MDA-MB-435 > 100 µM | NCI-H23 > 100 µM | OVCAR-3 > 100 µM | OVCAR-5 > 100 µM | RPMI-8226 > 100 µM | SF-295 > 100 µM | SK-OV-3 > 100 µM | SN12C > 100 µM | TK-10 > 100 µM | UO-31 > 100 µM

C=C(C)CC1=C(OCC)C(OC)(OCC)C1=O (stereo not given)
inactive: 786-0 > 100 µM | A498 > 100 µM | A549 > 100 µM | CCRF-CEM > 100 µM | COLO 205 > 100 µM | HOP-92 > 100 µM | LOX IMVI > 100 µM | MDA-MB-435 > 100 µM | NCI-H23 > 100 µM | OVCAR-3 > 100 µM | OVCAR-5 > 100 µM | SF-295 > 100 µM | SK-OV-3 > 100 µM | SN12C > 100 µM | TK-10 > 100 µM | UO-31 > 100 µM

Cc1nc2ccccc2c(=O)n1NC(=S)Nc1ccccc1
inactive: 786-0 > 100 µM | A498 > 100 µM | A549 > 100 µM | CCRF-CEM > 100 µM | COLO 205 > 100 µM | HOP-92 85.1 µM | K562 > 100 µM | LOX IMVI > 100 µM | NCI-H23 84.3 µM | OVCAR-5 > 100 µM | RPMI-8226 > 100 µM | SF-295 > 100 µM | SK-OV-3 > 100 µM | SN12C > 100 µM | SR > 100 µM | TK-10 > 100 µM | UO-31 88.9 µM

C=CCCC(=O)N1CCC(C(=O)OCC)C1=O (stereo not given)
inactive: 786-0 > 100 µM | A498 > 100 µM | A549 > 100 µM | CCRF-CEM > 100 µM | COLO 205 > 100 µM | LOX IMVI > 100 µM | MDA-MB-435 > 100 µM | NCI-H23 > 100 µM | OVCAR-5 > 100 µM | SF-295 > 100 µM | SK-OV-3 > 100 µM | SN12C > 100 µM | TK-10 > 100 µM | UO-31 > 100 µM

COc1cc(/C=N/NC(=O)c2c(Cl)c(Cl)c(Cl)c(Cl)c2-c2nc3ccccc3[nH]2)ccc1O
inactive: 786-0 28 µM | A498 27.5 µM | A549 29.9 µM | CCRF-CEM 21.9 µM | COLO 205 22.3 µM | HCC 2998 17.2 µM | HOP-92 10.8 µM | K562 20.4 µM | LOX IMVI 22.4 µM | MDA-MB-435 29 µM | NCI-H23 19.9 µM | OVCAR-3 27.3 µM | OVCAR-5 27.9 µM | SF-295 24.1 µM | SK-OV-3 35.5 µM | SN12C 24.2 µM | UO-31 22.4 µM

N#Cc1ccc(Oc2ccccc2)cc1C#N
inactive: 786-0 > 100 µM | A498 > 100 µM | A549 > 100 µM | CCRF-CEM 22.4 µM | COLO 205 23.2 µM | HCC 2998 > 100 µM | HOP-92 > 100 µM | K562 49.3 µM | LOX IMVI 20.7 µM | NCI-H23 > 100 µM | OVCAR-3 > 100 µM | OVCAR-5 > 100 µM | RPMI-8226 42.8 µM | SF-295 > 100 µM | SK-OV-3 > 100 µM | SN12C 96.4 µM | SR 20.4 µM | TK-10 > 100 µM | UO-31 92.3 µM

Cc1nc2sccn2c1C(=O)NNC(N)=S
inactive: 786-0 > 100 µM | A549 > 100 µM | CCRF-CEM > 100 µM | COLO 205 > 100 µM | HCC 2998 > 100 µM | HOP-92 77.6 µM | K562 > 100 µM | LOX IMVI > 100 µM | NCI-H23 > 100 µM | OVCAR-3 > 100 µM | OVCAR-5 > 100 µM | RPMI-8226 > 100 µM | SF-295 > 100 µM | SK-OV-3 > 100 µM | SN12C > 100 µM | SR > 100 µM | TK-10 > 100 µM

CC(C)(O)C1CC(=O)C(C)(C2C(O)CC3(C)C4CC=C5C(CCC(O)C5(C)C)C4(C)C(=O)CC23C)O1 (stereo not given)
inactive: 786-0 > 100 µM | A498 > 100 µM | A549 > 100 µM | COLO 205 > 100 µM | HCC 2998 > 100 µM | HOP-92 91.8 µM | K562 > 100 µM | LOX IMVI > 100 µM | MDA-MB-435 > 100 µM | NCI-H23 > 100 µM | OVCAR-3 > 100 µM | OVCAR-5 > 100 µM | RPMI-8226 > 100 µM | SF-295 > 100 µM | SK-OV-3 > 100 µM | SN12C > 100 µM | TK-10 > 100 µM | UO-31 > 100 µM
